Values joined by “and” are separate entries in the source; they are usually repeats but may differ in a detail not shown here. Equal entries are not always repeated.
Tests used:
[1] = Cytotoxicity assay (CellTiter-Glo, 72 h), Jurkat; format: cell-based; settings: human, Jurkat cells (T lymphoma), raw data (replicates)
Method: (§1) Jurkat cells were cultured in RPMI1640 medium supplemented with 10% foetal bovine serum, penicillin (50 U/ml), streptomycin (50 μg/ml), and Glutamax. SKOV-3 cells were cultured in DMEM medium supplemented with 10% fetal bovine serum, penicillin (50 U/ml), and streptomycin (50 μg/ml). MESO-1 cells were cultured in RPMI1640 medium supplemented with 10% fetal bovine serum, penicillin (50 U/ml), and streptomycin (50 μg/ml). All cell lines were seeded in a 384-well plate at a density of 1000 cells/well in 20 μl of media and incubated at 37 °C in a humidified incubator with 5% CO2. After 4 h, 2-fold dilution samples resolved in DMSO were added to the cell culture at the concentration of 0.5% (0.1 μl) and incubated for 72 h. Cell viabilities were measured using a CellTiter-Glo luminescent cell viability assay and EnVision multilabel plate reader.

[2] = system: human ovarian adenocarcinoma SKOV-3 cells; experiment: Cytotoxicity assay (CellTiter-Glo, 72 h), SKOV-3; format: cell-based; settings: raw replicate data
Method: as §1

[3] = Cytotoxicity assay (CellTiter-Glo, 72 h), SKOV-3; format: cell-based, human; settings: human
Method: as §1

For `CO[C@H]1C[C@@H]2CC[C@@H](C)[C@@](O)(O2)C(=O)C(=O)N2CCCC[C@H]2C(=O)O[C@H]([C@H](C)C[C@@H]2CC[C@@H](O)[C@H](OC)C2)CC(=O)[C@H](C)/C=C(\C)[C@@H](O)[C@@H](OC)C(=O)[C@H](C)C[C@H](C)/C=C/C=C/C=C/1C` [Compound 1, rapamycin, reference compound], the viability at 72 h, 0.0488281 uM ([1]; conc 0.0488281 uM) was 24.5%, the viability at 72 h, 0.0976562 uM ([1]; conc 0.0976562 uM) was 24% and the viability at 72 h, 0.195312 uM ([1]; conc 0.195312 uM) was 24.4%. For the same compound, the viability at 72 h, 0.390625 uM ([1]; conc 0.390625 uM) was 23.8%, the viability at 72 h, 0.78125 uM ([1]; conc 0.78125 uM) was 23.7% and the viability at 72 h, 1.5625 uM ([1]; conc 1.5625 uM) was 23.8%. The viability at 72 h, 3.125 uM ([1]; conc 3.125 uM) was 23.9%, the viability at 72 h, 6.25 uM ([1]; conc 6.25 uM) was 20.6% and the viability at 72 h, 12.5 uM ([1]; conc 12.5 uM) was 18.3%. The viability at 72 h, 25 uM ([1]; conc 25 uM) was 7.7%, the “SKOV3 viability (%)” value ([2]; conc 9.53674e-5 uM) was 85.5% and 83.5% and the “SKOV3 viability (%)” value ([2]; conc 0.000190735 uM) was 77.8%. The “SKOV3 viability (%)” value ([2]; conc 0.00038147 uM) was 76.1% and 77.6%, the “SKOV3 viability (%)” value ([2]; conc 0.000762939 uM) was 63.5% and 66.3% and the “SKOV3 viability (%)” value ([2]; conc 0.00152588 uM) was 104.6% and 106.1%. The “SKOV3 viability (%)” value ([2]; conc 0.00305176 uM) was 68.3% and 63.8%, the “SKOV3 viability (%)” value ([2]; conc 0.00610352 uM) was 65.9% and the “SKOV3 viability (%)” value ([2]; conc 0.012207 uM) was 65.2% and 58.2%. For the same compound, the “SKOV3 viability (%)” value ([2]; conc 0.0244141 uM) was 61.9% and 60.6%, the “SKOV3 viability (%)” value ([2]; conc 0.0488281 uM) was 65.4% and 58.1% and the “SKOV3 viability (%)” value ([2]; conc 0.0976562 uM) was 60.9% and 62.0%. For the same compound, the “SKOV3 viability (%)” value ([2]; conc 0.195312 uM) was 60.7% and 56.3%, the “SKOV3 viability (%)” value ([2]; conc 0.390625 uM) was 59.9% and 61.0% and the “SKOV3 viability (%)” value ([2]; conc 0.78125 uM) was 54.1% and 58.4%. For the same compound, the “SKOV3 viability (%)” value ([2]; conc 1.5625 uM) was 63.0%, the “SKOV3 viability (%)” value ([2]; conc 3.125 uM) was 54.7% and the “SKOV3 viability (%)” value ([2]; conc 6.25 uM) was 63.2%. For the same compound, the “SKOV3 viability (%)” value ([2]; conc 12.5 uM) was 56.9%, the “SKOV3 viability (%)” value ([2]; conc 25 uM) was 55.5% and the “SKOV3 viability (%)” value ([2]; conc 50 uM) was 16.3% and 24.9% and 9.3%. For the same compound, the viability at 72 h ([3]; SKOV-3 cells (ovarian adenocarcinoma), SKOV-3 cells, 72 h, read-out: Plateau level of cell viability in the dose-response curve) was ~60%, the viability at 72 h, 9.53674e-05 uM ([3]; SKOV-3 cells (ovarian adenocarcinoma), conc 9.53674e-5 uM, raw replicate data, read-out: SKOV3 viability (%)) was 78.7% and the viability at 72 h, 0.000190735 uM ([3]; SKOV-3 cells (ovarian adenocarcinoma), conc 0.000190735 uM, raw replicate data, read-out: SKOV3 viability (%)) was 70.9%. The viability at 72 h, 0.00038147 uM ([3]; SKOV-3 cells (ovarian adenocarcinoma), conc 0.00038147 uM, raw replicate data, read-out: SKOV3 viability (%)) was 75.1%, the viability at 72 h, 0.000762939 uM ([3]; SKOV-3 cells (ovarian adenocarcinoma), conc 0.000762939 uM, raw replicate data, read-out: SKOV3 viability (%)) was 62.9% and the viability at 72 h, 0.00152588 uM ([3]; SKOV-3 cells (ovarian adenocarcinoma), conc 0.00152588 uM, raw replicate data, read-out: SKOV3 viability (%)) was 110%. For the same compound, the viability at 72 h, 0.00305176 uM ([3]; SKOV-3 cells (ovarian adenocarcinoma), conc 0.00305176 uM, raw replicate data, read-out: SKOV3 viability (%)) was 70.7%, the viability at 72 h, 0.00610352 uM ([3]; SKOV-3 cells (ovarian adenocarcinoma), conc 0.00610352 uM, raw replicate data, read-out: SKOV3 viability (%)) was 64.7% and the viability at 72 h, 0.012207 uM ([3]; SKOV-3 cells (ovarian adenocarcinoma), conc 0.012207 uM, raw replicate data, read-out: SKOV3 viability (%)) was 59.4%. For the same compound, the viability at 72 h, 0.0244141 uM ([3]; SKOV-3 cells (ovarian adenocarcinoma), conc 0.0244141 uM, raw replicate data, read-out: SKOV3 viability (%)) was 57.9%, the viability at 72 h, 0.0488281 uM ([3]; SKOV-3 cells (ovarian adenocarcinoma), conc 0.0488281 uM, raw replicate data, read-out: SKOV3 viability (%)) was 61.1% and the viability at 72 h, 0.0976562 uM ([3]; SKOV-3 cells (ovarian adenocarcinoma), conc 0.0976562 uM, raw replicate data, read-out: SKOV3 viability (%)) was 61.7%. The viability at 72 h, 0.195312 uM ([3]; SKOV-3 cells (ovarian adenocarcinoma), conc 0.195312 uM, raw replicate data, read-out: SKOV3 viability (%)) was 59.4%, the viability at 72 h, 0.390625 uM ([3]; SKOV-3 cells (ovarian adenocarcinoma), conc 0.390625 uM, raw replicate data, read-out: SKOV3 viability (%)) was 59.7% and the viability at 72 h, 12.5 uM ([3]; SKOV-3 cells (ovarian adenocarcinoma), conc 12.5 uM, raw replicate data, read-out: SKOV3 viability (%)) was 57.5%. For the same compound, the viability at 72 h, 25 uM ([3]; SKOV-3 cells (ovarian adenocarcinoma), conc 25 uM, raw replicate data, read-out: SKOV3 viability (%)) was 54.8%, the viability at 72 h, 0.78125 uM ([3]; SKOV-3 ovarian adenocarcinoma cells, conc 0.78125 uM, raw replicate data, read-out: SKOV3 viability (%)) was 55.3% and the viability at 72 h, 1.5625 uM ([3]; SKOV-3 ovarian adenocarcinoma cells, conc 1.5625 uM, raw replicate data, read-out: SKOV3 viability (%)) was 58.8%. The viability at 72 h, 3.125 uM ([3]; SKOV-3 ovarian adenocarcinoma cells, conc 3.125 uM, raw replicate data, read-out: SKOV3 viability (%)) was 57.4% and the viability at 72 h, 6.25 uM ([3]; SKOV-3 ovarian adenocarcinoma cells, conc 6.25 uM, raw replicate data, read-out: SKOV3 viability (%)) was 63.1%.
